{
  "source": "patent US20250287950A1",
  "about": "“FUNGICIDAL USE” (Adama Makhteshim Ltd., priority 2021, published 2025)",
  "key": {"[1]": {"test_system": "Mycosphaerella fijiensis (black sigatoka)", "experiment": "Black sigatoka open field trial in banana, one application (Example 8a)", "format": "in vivo", "experimental": "To test for fungicidal control of Mycosphaerella fijiensis the trial was realized in open field. […] Each of the above treatments was applied once when plants were showing a disease infection of 5%. The treatments composed of 4 replicates. The experimental design was a randomized complete block design. Data was analyzed using an ANOVA at the 95% confidence interval.\nThe level of infection was determined based on the weighted average of infection (PPI) using the Stover scale modified by Gaulh on 5 plants per plot."}, "[2]": {"test_system": "Mycosphaerella fijiensis (black sigatoka)", "experiment": "Black sigatoka open field trial in banana, 12 applications, leaves per plant (Example 8b)", "format": "in vivo", "settings": "folpet 850 g a.i./ha", "from_the_text": "To test fungicidal control of Mycosphaerella fijiensis, the trial was realized in open field. […] All treatments were applied in a water solution: no mineral oil added.\nExperimental unit consisted of 9 banana plants surrounded by Musa textilis, a variety tolerant to Black Sigatoka, used as border plants. The trial followed a complete randomized design, each treatment was replicated three times.\nApplications were done every 6 days. All treatments had 12 applications.\nThe total leaves per plant was evaluated. A high number of leaves at harvest translates to more capability keep the fruit in post-harvest.\nTreatment response to black Sigatoka was evaluated using the Stover scale modified by Gauhl.\nThe statistical analysis was done with INFOSTAT program, using a multiple comparison test (LSD) for every parameter."}},
  "data": [
    {"compound": "O=C1c2ccccc2C(=O)N1SC(Cl)(Cl)Cl", "note": "[folpet]", "values": [
      {"measurement": "efficacy relative to the mancozeb reference product (in words)", "setting": "[1]; dose of 750 g a.i./ha", "value": "comparable to the one provided by the reference product based on mancozeb"},
      {"measurement": "control of black sigatoka disease (in words)", "setting": "[1]; low doses of 500 and 625 g a.i./ha", "value": "good control"},
      {"measurement": "number of leaves per plant in comparison to the untreated and the mancozeb standard (in words)", "setting": "[2]", "value": "higher number of leaves per plant"}
    ]}
  ]
}
